Among the data in PubChem BioAssay AID248 (DTP/NCI, 2004) are T/C values, retold here.

Molecules are shown by their SMILES. Values joined by “and” are separate entries in the source; they are usually repeats but may differ in a detail not shown here. Identical values can stand only once. Inconclusive results and toxic doses are left out.

In the test the test system is L1210 leukemia ip in BDF1 mice, survival T/C. Put plainly: NCI In Vivo Anticancer Drug Screen. Data for tumor model L1210 Leukemia (intraperitoneal) in B6D2F1 (BDF1) mice. Conditions: endpoint: mean survival time, higher = longer survival. A digest of the protocol: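 Tumor cells were implanted, animals were treated, and survival was followed. The result divides the treated measurement by the vehicle-control measurement.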

Setting [1] is: dose: 10.0 mg/kg/injection, schedule: Q01DX001 (ip), vehicle: saline.
The mark [2] stands for this setting: dose: 100.0 mg/kg/injection, schedule: Q01DX001 (ip), vehicle: saline.
Setting [3] is: dose: 200.0 mg/kg/injection, schedule: Q01DX001 (ip), vehicle: saline.
Setting [4] is: dose: 400.0 mg/kg/injection, schedule: Q01DX001 (ip), vehicle: saline.
The mark [5] stands for this setting: dose: 100.0 mg/kg/injection, schedule: Q01DX009 (ip), vehicle: saline with Tween-80.
Where [6] appears, read: dose: 100.0 mg/kg/injection, schedule: Q04DX003 (ip), vehicle: saline with Tween-80.
[7] abbreviates: dose: 200.0 mg/kg/injection, schedule: Q04DX003 (ip), vehicle: saline with Tween-80.
Where [8] appears, read: dose: 400.0 mg/kg/injection, schedule: Q04DX003 (ip), vehicle: saline with Tween-80.
The mark [9] stands for this setting: dose: 200.0 mg/kg/injection, schedule: Q01DX009 (ip), vehicle: saline with Tween-80.
[10] abbreviates: dose: 100.0 mg/kg/injection, schedule: Q04DX002 (ip), vehicle: saline with Tween-80.
Where [11] appears, read: dose: 200.0 mg/kg/injection, schedule: Q04DX002 (ip), vehicle: saline with Tween-80.
Where [12] appears, read: dose: 400.0 mg/kg/injection, schedule: Q04DX002 (ip), vehicle: saline with Tween-80.

As for `Nc1ccc(N(CCCl)CCN(CCCl)c2ccc(N)cc2)cc1`, the T/C by setting is: (dose: 0.25 mg/kg/injection, schedule: Q01DX009 (ip), vehicle: saline) 102 % of control; (dose: 0.5 mg/kg/injection, schedule: Q01DX009 (ip), vehicle: saline) 109 % of control; (dose: 1.0 mg/kg/injection, schedule: Q01DX009 (ip), vehicle: saline) 118 % of control; (dose: 1.2 mg/kg/injection, schedule: Q01DX009 (ip), vehicle: carboxymethylcellulose (CMC)) 109 % of control; (dose: 2.5 mg/kg/injection, schedule: Q01DX001 (ip), vehicle: carboxymethylcellulose (CMC)) 106 % of control; (dose: 2.5 mg/kg/injection, schedule: Q01DX009 (ip), vehicle: carboxymethylcellulose (CMC)) 111 % of control. Further, the T/C (dose: 2.9 mg/kg/injection, schedule: Q01DX001 (ip), vehicle: carboxymethylcellulose (CMC)) was 114 % of control; the T/C (dose: 2.9 mg/kg/injection, schedule: Q01DX009 (ip), vehicle: carboxymethylcellulose (CMC)) was 119 % of control; the T/C (dose: 2.9 mg/kg/injection, schedule: Q01DX009 (ip), vehicle: saline) is 169 % of control; the T/C (dose: 4.0 mg/kg/injection, schedule: Q01DX001 (ip), vehicle: saline) is 106 % of control; the T/C (dose: 4.4 mg/kg/injection, schedule: Q01DX001 (ip), vehicle: carboxymethylcellulose (CMC)) is 119 % of control; the T/C (dose: 4.4 mg/kg/injection, schedule: Q01DX009 (ip), vehicle: saline) was 159 % of control. For the same compound, the T/C by setting is: (dose: 5.0 mg/kg/injection, schedule: Q01DX001 (ip), vehicle: carboxymethylcellulose (CMC)) 115 % of control; (dose: 6.0 mg/kg/injection, schedule: Q01DX001 (ip), vehicle: saline) 122 % of control; under setting [1], 111 % of control; (dose: 10.0 mg/kg/injection, schedule: Q01DX009 (ip), vehicle: carboxymethylcellulose (CMC)) 106 % of control; (dose: 10.0 mg/kg/injection, schedule: Q01DX009 (ip), vehicle: saline) 105 % of control; (dose: 15.0 mg/kg/injection, schedule: Q01DX001 (ip), vehicle: saline) 117 % of control.

As for `O=[N+]([O-])c1ccc(SCCCN2CCCCC2)c([N+](=O)[O-])c1`, the T/C (dose: 50.0 mg/kg/injection, schedule: Q01DX001 (ip), vehicle: carboxymethylcellulose (CMC)) was 96 % of control.

Take `NC(=O)c1cccs1`: the T/C by setting is: (dose: 5.0 mg/kg/injection, schedule: Q01DX001 (ip), vehicle: saline) 98 % of control; under setting [1], 98 % of control; (dose: 20.0 mg/kg/injection, schedule: Q01DX001 (ip), vehicle: saline) 98 % of control; (dose: 40.0 mg/kg/injection, schedule: Q01DX001 (ip), vehicle: saline) 102 % of control.

For `CCOC(=O)/C(C#N)=C/c1ccc(O)cc1`, the T/C by setting is: (dose: 100.0 mg/kg/injection, schedule: Q01DX Z (ip), vehicle: methylcellulose (MC)) 96 % of control; (dose: 200.0 mg/kg/injection, schedule: Q01DX Z (ip), vehicle: methylcellulose (MC)) 96 % of control.

As to `Cc1cc(Cl)ccc1OCCCC(=O)O`, the T/C is 102 % of control (dose: 50.0 mg/kg/injection, schedule: Q01DX001 (ip), vehicle: saline); 98 % of control under setting [2]; 98 % of control under setting [3]; 104 % of control under setting [4].

As for `CCCCCCCCC(=O)NCc1ccc(O)c(OC)c1`, the T/C by setting is: (dose: 1.56 mg/kg/injection, schedule: Q01DX009 (ip), vehicle: saline) 93 % of control; (dose: 3.12 mg/kg/injection, schedule: Q01DX009 (ip), vehicle: saline) 101 % of control; (dose: 6.25 mg/kg/injection, schedule: Q01DX009 (ip), vehicle: saline) 90 % of control.

Take `OCc1cc(Cl)cc(Cl)c1O`: the T/C by setting is: under setting [5], 97 % of control; under setting [6], 97 % of control; under setting [7], 98 % of control; under setting [8], 101 % of control.

Take `CC(=O)OCC1OC(Sc2nc3ncnc(N)c3[nH]2)C(OC(C)=O)C(OC(C)=O)C1OC(C)=O` (centres undefined): the T/C runs as follows: under setting [2], 104 % of control; under setting [3], 102 % of control; under setting [4], 97 % of control.

In the case of `Cc1cccc(NC(=O)c2ccc(Cl)c(Cl)c2)c1C`, the T/C was 94 % of control (dose: 100.0 mg/kg/injection, schedule: Q01DX009 (ip), vehicle: Klucel (hydroxypropylcellulose) (HPC)); 93 % of control (dose: 100.0 mg/kg/injection, schedule: Q04DX003 (ip), vehicle: Klucel (hydroxypropylcellulose) (HPC)); 88 % of control (dose: 200.0 mg/kg/injection, schedule: Q01DX009 (ip), vehicle: Klucel (hydroxypropylcellulose) (HPC)); 91 % of control (dose: 200.0 mg/kg/injection, schedule: Q04DX003 (ip), vehicle: Klucel (hydroxypropylcellulose) (HPC)); 88 % of control (dose: 400.0 mg/kg/injection, schedule: Q01DX009 (ip), vehicle: Klucel (hydroxypropylcellulose) (HPC)); 95 % of control (dose: 400.0 mg/kg/injection, schedule: Q04DX003 (ip), vehicle: Klucel (hydroxypropylcellulose) (HPC)).

Turning to `O=C1C=CC(=O)c2[nH]c(-c3ccccc3)cc21`, the T/C is 93 % of control (dose: 12.5 mg/kg/injection, schedule: Q04DX002 (ip), vehicle: Klucel (hydroxypropylcellulose) (HPC)) and 105 % of control (dose: 25.0 mg/kg/injection, schedule: Q04DX002 (ip), vehicle: Klucel (hydroxypropylcellulose) (HPC)).

As to `O=C(O)CNCc1ccc(Cl)cc1`, the T/C by setting is: (dose: 12.5 mg/kg/injection, schedule: Q01DX009 (ip), vehicle: water) 104 % of control; (dose: 25.0 mg/kg/injection, schedule: Q01DX009 (ip), vehicle: water) 96 % of control; (dose: 50.0 mg/kg/injection, schedule: Q01DX009 (ip), vehicle: water) 104 % of control and 91 % of control; (dose: 100.0 mg/kg/injection, schedule: Q01DX009 (ip), vehicle: water) 100 % of control; (dose: 100.0 mg/kg/injection, schedule: Q01DX Z (ip), vehicle: saline) 111 % of control; (dose: 100.0 mg/kg/injection, schedule: Q04DX003 (ip), vehicle: water) 88 % of control. The T/C was 100 % of control (dose: 200.0 mg/kg/injection, schedule: Q01DX Z (ip), vehicle: saline) and 92 % of control (dose: 200.0 mg/kg/injection, schedule: Q04DX003 (ip), vehicle: water).

`CCCCOC(=O)C1=C(C(=O)OCCCC)CCCC1`: the T/C by setting is: under setting [5], 98 % of control; under setting [9], 104 % of control.

For `CC(C(=O)c1ccccc1)c1ccccc1` (centres undefined), the T/C by setting is: (dose: 50.0 mg/kg/injection, schedule: Q01DX009 (ip), vehicle: saline with Tween-80) 97 % of control; under setting [5], 87 % of control; (dose: 100.0 mg/kg/injection, schedule: Q04DX002 (ip), vehicle: Klucel (hydroxypropylcellulose) (HPC)) 106 % of control; under setting [10], 90 % of control; under setting [9], 87 % of control; (dose: 200.0 mg/kg/injection, schedule: Q04DX002 (ip), vehicle: Klucel (hydroxypropylcellulose) (HPC)) 91 % of control. Besides, the T/C is 107 % of control under setting [11]; 98 % of control (dose: 400.0 mg/kg/injection, schedule: Q04DX002 (ip), vehicle: Klucel (hydroxypropylcellulose) (HPC)); 101 % of control under setting [12].

`CCCCCC(=O)NCC(=O)O`: the T/C was 94 % of control under setting [6], 97 % of control under setting [7] and 94 % of control under setting [8].

With `CSC(SC)=C(C#N)C#N`, the T/C (dose: 25.0 mg/kg/injection, schedule: Q04DX002 (ip), vehicle: saline) is 101 % of control.

For the compound `OCC(O)CSc1c(Cl)c(Cl)c(Cl)c(Cl)c1Cl` (centres undefined), the T/C reads like this: (dose: 100.0 mg/kg/injection, schedule: Q01DX001 (ip), vehicle: saline with Tween-80) 98 % of control and 88 % of control; under setting [10], 95 % of control and 101 % of control; under setting [6], 92 % of control; (dose: 200.0 mg/kg/injection, schedule: Q01DX001 (ip), vehicle: saline with Tween-80) 93 % of control and 95 % of control; under setting [11], 95 % of control and 96 % of control; under setting [7], 99 % of control. In addition, the T/C is 95 % of control and 86 % of control (dose: 400.0 mg/kg/injection, schedule: Q01DX001 (ip), vehicle: saline with Tween-80); 97 % of control and 108 % of control under setting [12]; 94 % of control under setting [8].
